Source: ChEMBL document CHEMBL1255184, “A novel series of positive modulators of the AMPA receptor: structure-based lead optimization” (Bioorg Med Chem Lett, 2010)
Values after ≈ are worked out from the molar mass of the structure shown. Active and inactive are the calls of the source. The rule behind the calls is not given here.

What was measured:
[1] = Volume of distribution at steady state in Wistar rat at 2 mg/kg, iv; type: ADME, organism-based; design: dose 2 mg/kg, route intravenous; settings: in vivo, read-out: Vdss
[2] = Oral bioavailability in Wistar rat at 10 mg/kg; type: ADME, organism-based; settings: in vivo
[3] = Half life in Wistar rat at 2 mg/kg, iv; type: ADME, organism-based; design: dose 2 mg/kg, route intravenous; settings: in vivo
[4] = Solubility of the compound; type: physicochemical
[5] = Plasma clearance in Wistar rat at 2 mg/kg, iv; type: ADME, organism-based; design: dose 2 mg/kg, route intravenous
[6] = Ratio of drug level in brain to plasma in Wistar rat; type: ADME
[7] = Intrinsic clearance in human microsomes; type: ADME, Microsome
[8] = Intrinsic clearance in rat microsomes; type: ADME, Microsome
[9] = Inhibition of kainate receptor
[10] = Inhibition of NMDA receptor
[11] = system: Rattus norvegicus; assay: Potentiation of AMPA-induced single unit activity in iv dosed hippocampus of anesthetized rat by electrophysiology assay; type: functional; settings: read-out: MED
[12] = Inhibition of GABA receptor

Vd [1] [L/kg] | bioavailability [2] [%] | half-life [3] [h] | solubility [4] [µg/mL] | clearance [5] [mL/min/kg] | Kp [6] | microsomal CLint [7] [µL/min/mg] | microsomal CLint [8] [µL/min/mg] | inhibition [9] | inhibition [10] | inhibition [12] | Compound | minimal effective dose [11] [mg/kg]
0.5 | 4 | 3.8 | 20 (≈ 40.4 µM) | 2.3 | 1.03 |  |  |  |  |  | O=C(Cn1nc(C(F)(F)F)c2c1CCCC2)Nc1sc2c(c1C(=O)N[C@@H]1CCNC1)CCCC2 | 
 |  |  |  |  |  | > 270 | > 270 |  |  |  | O=C(Cn1nc(C(F)(F)F)c2c1CCCC2)Nc1sc2c(c1CO)CCCC2 | 
 |  |  |  |  |  | 57 | 33 |  |  |  | NC(=O)c1c(NC(=O)Cn2nc(C(F)(F)F)c3c2CCNC3)sc2c1CCCC2 | 
1.1 | 16 | 1.9 | 79 (≈ 196 µM) | 9 |  | 15 | 15 |  |  |  | CNCc1cn(CC(=O)Nc2sc3c(c2C(N)=O)CCCC3)nc1C(C)(C)C | 
0.6 | 43 | 1.1 | 107 (≈ 249 µM) | 15 | 0.05 | < 12 | < 19 | inactive | inactive | inactive | CCNCc1cn(CC(=O)Nc2sc3c(c2C(N)=O)CCCC3)nc1C(F)(F)F | 0.3
2.4 | 15 | 1.5 | 65 (≈ 156 µM) | 23 |  | 33 | < 12 |  |  |  | CNCc1cn(CC(=O)Nc2sc3c(c2C(N)=O)CCCC3)nc1C(F)(F)F | 
 |  |  |  |  |  | > 270 | > 270 |  |  |  | CCN(CC)Cc1cn(CC(=O)Nc2sc3c(c2C(N)=O)CCCC3)nc1C(F)(F)F | 
 |  |  |  | 43 |  | 16 | 33 |  |  |  | CNCc1cn(CC(=O)Nc2sc3c(c2C(=O)NC)CCCC3)nc1C(F)(F)F | 
 |  |  |  |  |  | 89 | 49 |  |  |  | CNCc1cn(CCC(=O)Nc2sc3c(c2C(N)=O)CCCC3)nc1C(F)(F)F | 
